Measurements taken from ChEMBL document CHEMBL1201862, “PubChem BioAssay data set” (2004).
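All cell lines were grown in 96-well plates and treated with compound for 48 hours. GI50 is the concentration that inhibits growth by half.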 Calls of active or inactive are those of the source. No stated cut-off is given here; in the data, active = GI50 up to about 1.1 µM and inactive = higher.

Experiments:
Experiment in all cases: DTP human tumour cell line panel, 48 h
LOX IMVI = system: LOX IMVI
SN12C = system: SN12C
COLO 205 = system: COLO 205
UACC-62 = system: UACC-62
ACHN = system: ACHN
U-251 = system: U-251
786-0 = system: 786-0
SK-MEL-2 = system: SK-MEL-2
UO-31 = system: UO-31
OVCAR-3 = system: OVCAR-3
DU-145 = system: DU-145
HCC 2998 = system: HCC 2998
PC-3 = system: PC-3
KM12 = system: KM12
SF-268 = system: SF-268
HCT-116 = system: HCT-116
T47D = system: T47D
SF-295 = system: SF-295
NCI-H23 = system: NCI-H23
A498 = system: A498

SMILES	GI50 (LOX IMVI)	GI50 (SN12C)	GI50 (COLO 205)	GI50 (UACC-62)	GI50 (ACHN)	GI50 (U-251)	GI50 (786-0)	GI50 (SK-MEL-2)	GI50 (UO-31)	GI50 (OVCAR-3)	GI50 (DU-145)	GI50 (HCC 2998)	GI50 (PC-3)	GI50 (KM12)	GI50 (SF-268)	GI50 (HCT-116)	GI50 (T47D)	GI50 (SF-295)	GI50 (NCI-H23)	GI50 (A498)
O=C1C[C@H](COCc2ccccc2)NC(=O)C[C@H](COCc2ccccc2)NC(=O)C[C@H](COCc2ccccc2)N1	> 100 µM (inactive)	> 100 µM (inactive)	> 100 µM (inactive)	> 100 µM (inactive)	16.4 µM (inactive)	12.6 µM (inactive)	16.9 µM (inactive)	28.2 µM (inactive)	> 100 µM (inactive)	80.5 µM (inactive)	> 100 µM (inactive)	> 100 µM (inactive)	> 100 µM (inactive)	> 100 µM (inactive)	40.9 µM (inactive)	32.4 µM (inactive)	62.2 µM (inactive)	19.2 µM (inactive)	55.3 µM (inactive)	12 µM (inactive)
CCOC(=O)[C@H]1C[C@]23CN(C(=O)OC(C)(C)C)CC[C@H]2CCC2(SCCCS2)[C@@H]3N1C	30.9 µM (inactive)	21.3 µM (inactive)	28.2 µM (inactive)	40.5 µM (inactive)	40.9 µM (inactive)	34.4 µM (inactive)	34.5 µM (inactive)	22.2 µM (inactive)	37.8 µM (inactive)	48.2 µM (inactive)	54.3 µM (inactive)	22.8 µM (inactive)	25.2 µM (inactive)	33.3 µM (inactive)	50.4 µM (inactive)	31.8 µM (inactive)	25.8 µM (inactive)	38.3 µM (inactive)	42 µM (inactive)	52.2 µM (inactive)
O=C1Nc2ccccc2C1(O)Cc1ccccn1 (stereo not given)	> 100 µM (inactive)	> 100 µM (inactive)	> 100 µM (inactive)	> 100 µM (inactive)	> 100 µM (inactive)	> 100 µM (inactive)	> 100 µM (inactive)	> 100 µM (inactive)	> 100 µM (inactive)	> 100 µM (inactive)	> 100 µM (inactive)	> 100 µM (inactive)	> 100 µM (inactive)	> 100 µM (inactive)	> 100 µM (inactive)	> 100 µM (inactive)	> 100 µM (inactive)	> 100 µM (inactive)	> 100 µM (inactive)	> 100 µM (inactive)
Cc1cccc(NC(=S)Nc2cccc(Cl)c2)n1	> 100 µM (inactive)	> 100 µM (inactive)	> 100 µM (inactive)	> 75.2 µM (inactive)	> 100 µM (inactive)	47.1 µM (inactive)	> 70.6 µM (inactive)	> 72.8 µM (inactive)	> 100 µM (inactive)	> 100 µM (inactive)	> 100 µM (inactive)	> 100 µM (inactive)	> 100 µM (inactive)	> 100 µM (inactive)	> 67.8 µM (inactive)	> 100 µM (inactive)	> 100 µM (inactive)	32.1 µM (inactive)	> 100 µM (inactive)	> 70.3 µM (inactive)
CSC(=O)c1sc(SC)[n+](-c2ccccc2)c1O	12.6 µM (inactive)	19.6 µM (inactive)	27.7 µM (inactive)	15.6 µM (inactive)	27.9 µM (inactive)	16.5 µM (inactive)	17.9 µM (inactive)	22 µM (inactive)	17.3 µM (inactive)	13.2 µM (inactive)	16 µM (inactive)	19.6 µM (inactive)	14 µM (inactive)	> 10 µM (inactive)	16.4 µM (inactive)	16.8 µM (inactive)	7.35 µM (inactive)	14.9 µM (inactive)	17.7 µM (inactive)	30.1 µM (inactive)
COc1ccc(NC(=O)CC(=O)N2N=C(c3ccccc3)C(/N=N/c3ccc(S(=O)(=O)CCOS(=O)(=O)O)cc3)C2=O)cc1 (stereo not given)	> 100 µM (inactive)	> 100 µM (inactive)	> 100 µM (inactive)	> 100 µM (inactive)	> 100 µM (inactive)	> 100 µM (inactive)	> 100 µM (inactive)	> 100 µM (inactive)	> 100 µM (inactive)	> 100 µM (inactive)	> 100 µM (inactive)	> 100 µM (inactive)	> 100 µM (inactive)	> 100 µM (inactive)	> 100 µM (inactive)	> 100 µM (inactive)	> 100 µM (inactive)	> 100 µM (inactive)	> 100 µM (inactive)	> 100 µM (inactive)
CNC(=S)N/N=C(\C)c1ccc(OC)cc1O	> 100 µM (inactive)	> 91.4 µM (inactive)	0.258 µM (active)	> 100 µM (inactive)	> 100 µM (inactive)	> 73.5 µM (inactive)	> 100 µM (inactive)	> 100 µM (inactive)	> 100 µM (inactive)	> 100 µM (inactive)	> 100 µM (inactive)	> 100 µM (inactive)	> 100 µM (inactive)	> 100 µM (inactive)	> 100 µM (inactive)	> 100 µM (inactive)	> 100 µM (inactive)	> 100 µM (inactive)	> 100 µM (inactive)	95.7 µM (inactive)
COc1cc(-c2cc(O)c(-c3ccc4ccccc4n3)c(O)n2)cc(OC)c1OC	19.1 µM (inactive)	> 56.6 µM (inactive)	38.7 µM (inactive)	15.2 µM (inactive)	> 62.7 µM (inactive)	22.9 µM (inactive)	34.4 µM (inactive)	32.2 µM (inactive)	68.7 µM (inactive)	12.4 µM (inactive)	44.9 µM (inactive)	> 60.3 µM (inactive)	44.3 µM (inactive)	14.8 µM (inactive)	43 µM (inactive)	19 µM (inactive)	97.5 µM (inactive)	21.9 µM (inactive)	46.2 µM (inactive)	> 61 µM (inactive)
CCCCCCCCCC(=O)NCCc1c[nH]c2ccc(OC)cc12	13.8 µM (inactive)	17.4 µM (inactive)	23.8 µM (inactive)	16.3 µM (inactive)	16.7 µM (inactive)	17 µM (inactive)	19.2 µM (inactive)	16.1 µM (inactive)	12.7 µM (inactive)	15.9 µM (inactive)	20.2 µM (inactive)	19.5 µM (inactive)	15.3 µM (inactive)	27.9 µM (inactive)	17.7 µM (inactive)	21.4 µM (inactive)	19.7 µM (inactive)	17.4 µM (inactive)	17.3 µM (inactive)	16.3 µM (inactive)
O=C(c1ccccc1)c1ccc2nc3n(c2c1)C(c1c(Cl)cccc1Cl)SC3 (stereo not given)	3.85 µM (inactive)	7.64 µM (inactive)	4.88 µM (inactive)	4.06 µM (inactive)	7.69 µM (inactive)	5.58 µM (inactive)	3.86 µM (inactive)	8.02 µM (inactive)	3.17 µM (inactive)	4.68 µM (inactive)	13.5 µM (inactive)	7.05 µM (inactive)	5.41 µM (inactive)	2.87 µM (inactive)	4.79 µM (inactive)	3.26 µM (inactive)	3.08 µM (inactive)	3.37 µM (inactive)	5.66 µM (inactive)	15.7 µM (inactive)
COc1ccc([C@H]2C=C(c3cc(F)c(Cl)cc3Cl)NC(=S)N2)cc1	37.3 µM (inactive)	21.3 µM (inactive)	19.1 µM (inactive)	28.3 µM (inactive)	36.9 µM (inactive)	26.7 µM (inactive)	33.6 µM (inactive)	25.1 µM (inactive)	36.6 µM (inactive)	33.7 µM (inactive)	39.9 µM (inactive)	23.9 µM (inactive)	19.9 µM (inactive)	29.2 µM (inactive)	48.5 µM (inactive)	27 µM (inactive)	18.7 µM (inactive)	24.3 µM (inactive)	37.5 µM (inactive)	28.1 µM (inactive)
